Experimental data: article PMC11926411 (Cell Structure and Function, 2019)

What was measured:
[1] = tested on: class III PI3K Vps34; assay: Time-lapse confocal imaging of endosomal markers after Vps34 inhibition; settings: Cos-1 cells, Vps34-IN1 treatment
From the text: Cells were imaged with an IX-83 microscope (Olympus, Tokyo, Japan) equipped with a BioPoint MAC6000 filter and shutter control unit (Ludl Electronic Products, Hawthorne, NY, USA), an automated XY-stage (Chuo Precision Industrial, Tokyo, Japan), an sDISK spinning disk confocal microscope (Andor Technology, Belfast, UK), and a Rolera EM-C^2 electron multiplying cooled charge-coupled device camera (QImaging, Surrey, BC, Canada). For epifluorescence microscopy, cells were illuminated with a SOLA Light Engine (Lumencor, Beaverton, OR, USA) and the following excitation and emission filters were used: FF02-438/24 and FF01-483/32 (Semrock, Rochester, NY, USA) for CFP; BP470-490 and BP510-550 (Olympus) for FITC; FF02-438/24 and FF01-542/27 for FRET; and BP520-550 and BA580IF (Olympus) for Alexa Fluor 594 and mRFP. For spinning-disk confocal imaging, cells were illuminated with a four-line (405, 488, 561, and 633 nm) laser module (Spectral Applied Research, Hamilton, ON, Canada) and the following emission filters were used: FF01-483/32 for CFP, FF01-542/27 for FRET, and BA580IF for TagRFP. Typical exposure times for 2×2 binning were 0.3 s. […]
Twenty-four hours after transfection, the cells were subjected to time-lapse confocal microscopy. […] P<0.0001 compared with before treatment, as calculated by repeated-measures ANOVA.

[2] = tested on: Ras-PI3K complex; assay type: cell-based; settings: Cos-1 cells, VN-H-Ras G12V, time-lapse confocal after Vps34-IN1; n=12
Method: Imaging of BiFC and FRET, and their data analysis were performed essentially as described previously ([Fujioka et al., 2013]; [Ohba et al., 2003]; [Tsutsumi et al., 2009]). In brief, cells plated on a collagen-coated, 35-mm-diameter glass-base dish were transfected with expression vectors. After 24 hours, cells were serum-starved in phenol red-free DMEM/F12 (Thermo Fisher Scientific) for 4 hours and placed in a stage-top incubation chamber (Live Cell Instrument, Soul, Korea) that was maintained at 37°C. Beginning at 10 min, cells were stimulated with 100 ng/ml EGF. BiFC images were acquired using a spinning disk mode, whereas FRET images were obtained using epifluorescence mode. To represent FRET efficacy, the FRET/CFP emission ratio was calculated as the quotient of background-subtracted FRET and CFP images. To stabilize jittery image stacks of time-lapse data set, ‘Image Stabilizer’ plug-in of ImageJ (https://imagej.nih.gov/ij) was used. MetaMorph software converts image stacks of time-lapse data set into one QuickTime movie.
Vesicles positive for a BiFC signal (from Ras-PI3K complex) or TagRFP (EEA-1) were extracted with the use of the ‘Top Hat’ module of MetaMorph software, and colocalization of the Ras-PI3K complex with EEA-1 was quantified with the use of the ‘measure colocalization’ function of the software.

For `CC(C)(O)CNc1ncc(-c2ccnc(Nc3ccnc(Cl)c3)n2)c(CC2CC2)n1` [Vps34-IN1], the “Endosomal localization of CFP-tagged Rab5” value [1] was “accumulated in the endosome”, the “Fluorescence signal in endosomes of RFP-tagged EEA-1” value [1] was “dramatically dispersed” and the “Amount of the Ras-PI3K complex in the endosome (BiFC)” value [2] was “partially, but significantly reduced”.
